Assay results as given in patent publication US9683934B2, “Terahertz spectroscopy for predicting stability of amorphous drugs” (Cambridge Enterprise Limited, priority 2013, dated 2017).

Columns and labels:
[1] = Glass-transition temperature, Tg; format: physicochemical
[2] = known from earlier investigations; cited from earlier work
[3] = Terahertz time-domain spectroscopy (THz-TDS) dielectric losses of polyalcohols, linear fits ε″(T/Tg)=A+BT/Tg; format: physicochemical; settings: for B3, linear coefficient of ε″(T/Tg)=A+BT/Tg in region (iii) / B1, linear coefficient of ε″(T/Tg)=A+BT/Tg in region (i) / B2, linear coefficient of ε″(T/Tg)=A+BT/Tg in region (ii): 1 THz, brackets = standard deviation at last decimal place; for B3, linear coefficient of ε″(T/Tg)=A+BT/Tg in region (iii): above Tg; for B1, linear coefficient of ε″(T/Tg)=A+BT/Tg in region (i): below about 0.6 Tg; for B2, linear coefficient of ε″(T/Tg)=A+BT/Tg in region (ii): between about 0.6 Tg and Tg; for Tα, crossover point of linear fits from region (ii) to region (iii) / Tβ, crossover point of linear fits from region (i) to region (ii) / Tβ/Tg: dielectric losses at 1 THz
Text: In these examples, systematic THz-TDS study allows direct access to the complex dielectric function for the frequency range of 0.1-3 THz, over a wide range of temperatures. For these experiments, the samples were melted (except glycerol, which is liquid at room temperature), loaded into a continuous-flow cryostat and cooled at a rate of approximately 25 K·min^−1 to 80 K, followed by subsequent heating by 10 K increments to 310 K. Spectra were acquired using a THz-TDS setup operating in transmission geometry. All four polyalcohols were purchased from Sigma-Aldrich with >99% purity. The samples were used without further purification. […] The solid lines represent linear fits to the data in regions (i) below a transition temperature of about 0.6 Tg, (ii) between the transition temperature and Tg, and (iii), above Tg. The dashed vertical lines highlight the temperatures 0.6Tg and Tg, respectively. Tβ and Tα represent the crossover points (changes in gradient) of the linear fits from region (i) to region (ii), and from region (ii) to region (iii), respectively. […] The temperature dependence of ∈″(v) at v=1 THz is shown in FIG. 6 for all four polyalcohol materials. Here, we use the rescaled temperature T/Tg on the abscissa to compare the common features of the glassy state between the different polyalcohols. Three absorption regimes can be resolved in all samples: (i) temperature-independent losses; ii) a weak temperature dependence of losses below Tg; and iii) a strong temperature dependence of losses above Tg, as proposed previously. More detailed information was extracted by fitting the data points with an empirical linear fit, viz. ∈″(T/Tg)=A+BT/Tg, in each of the respective temperature regions. In Table I, we summarize the crossover temperatures Tβ and Tα between regions (i)-(ii) and (ii)-(iii), respectively, together with the respective gradients B1,2,3 obtained separately for each region, (i), (ii) and (iii). For all samples, Tα corresponds to Tg, the temperature above which the temperature-dependent part of ∈″(v) becomes dominated by the primary dielectric relaxation.

[4] = Terahertz absorption coefficient of amorphous paracetamol and indomethacin at 1 THz versus T/Tg; format: physicochemical; settings: transmission
Text: FIG. 3 plots the results of the characterisation of these materials. FIG. 3 plots the absorption coefficient for terahertz radiation (α/cm^−1) measured in transmission through the material at 1 THz, against temperature (plotted as T/Tg) for each material. As set out in the Summary of the Invention, the rate of change of the loss of EM radiation with temperature (the gradient of the graph in FIG. 3) may then be assessed, or measured, and as appropriate compared with a predetermined value in order to achieve a quantitative, or relative, characterisation of the stability of the amorphous material as described below. In FIG. 3, the plotted results for indomethacin show two distinct linear regions, firstly a small and constant rate of change, or gradient, for the absorption of the radiation below Tg, and secondly a marked change to a higher rate of change, or gradient, above Tg. By contrast the plotted results for paracetamol show three different linear regions, namely a low rate of change below a transition temperature of about 0.6 Tg, a higher rate of change between 0.6 Tg and Tg, and a still higher rate of change above Tg.

[5] = cited from earlier work; for stability of the glass (amorphous phase): known from direct measurements of crystallisation during storage; for resistance to crystallisation of the amorphous material below Tg: stored below Tg
[6] = trehalose/glycerol mixtures by glycerol weight concentration, Table 3

Row | SMILES | Tg [1, 6] [°C] | Tg ([1]; polyalcohols, Table 1) [°C] | B3, linear coefficient of ε″(T/Tg)=A+BT/Tg in region (iii) [3] | B1, linear coefficient of ε″(T/Tg)=A+BT/Tg in region (i) [3] | B2, linear coefficient of ε″(T/Tg)=A+BT/Tg in region (ii) [3] | Tα, crossover point of linear fits from region (ii) to region (iii) [3] [K] | Tβ, crossover point of linear fits from region (i) to region (ii) [3] [K] | Tβ/Tg [3] | stability of the amorphous material indicated by gradient in region (ii) and changes in gradient ([3]; FIG. 5) | thermal change in absorption of terahertz radiation between 0.6 Tg-1.0 Tg [4] | temperature above which the sample recrystallised ([3]; during heating in the THz-TDS run) | fragility index, m [2] | stability of the glass (amorphous phase) [5] | resistance to crystallisation of the amorphous material below Tg [5]
1 | CC(=O)Nc1ccc(O)cc1 [paracetamol] | – | – | – | – | – | – | – | – | – | well developed | – | – | poor stability | crystallises rather readily
2 | COc1ccc2c(c1)c(CC(=O)O)c(C)n2C(=O)c1ccc(Cl)cc1 [indomethacin] | – | – | – | – | – | – | – | – | – | very low | – | – | very good stability | much more stable
3 | OC[C@@H](O)[C@H](O)CO [threitol] | – | -46.8 | 0.43(15) | 0.07(1) | 0.09(1) | 228 | 147 | 0.65 | – | – | above 250 K | 79 | – | –

Now from value to compound, other results behind:

Row | Tg [1, 6] [°C] | Tg ([1]; polyalcohols, Table 1) [°C] | B3, linear coefficient of ε″(T/Tg)=A+BT/Tg in region (iii) [3] | B1, linear coefficient of ε″(T/Tg)=A+BT/Tg in region (i) [3] | B2, linear coefficient of ε″(T/Tg)=A+BT/Tg in region (ii) [3] | Tα, crossover point of linear fits from region (ii) to region (iii) [3] [K] | Tβ, crossover point of linear fits from region (i) to region (ii) [3] [K] | Tβ/Tg [3] | stability of the amorphous material indicated by gradient in region (ii) and changes in gradient ([3]; FIG. 5) | thermal change in absorption of terahertz radiation between 0.6 Tg-1.0 Tg [4] | temperature above which the sample recrystallised ([3]; during heating in the THz-TDS run) | SMILES | fragility index, m [2] | stability of the glass (amorphous phase) [5] | resistance to crystallisation of the amorphous material below Tg [5]
4 | 115 | – | – | – | – | – | – | – | – | – | – | OC[C@H]1O[C@H](O[C@H]2O[C@H](CO)[C@@H](O)[C@H](O)[C@H]2O)[C@H](O)[C@@H](O)[C@@H]1O [0%, trehalose] | – | – | –
5 | – | -25.3 | 0.82(4) | 0.06(1) | 0.13(3) | 248 | 167 | 0.68 | – | – | – | OC[C@@H](O)[C@H](O)[C@@H](O)CO [xylitol] | 94 | – | –
6 | – | -4.8 | 1.92(5) | 0.02(2) | 0.34(2) | 265 | 150 | 0.56 | relatively poor stability | – | – | OC[C@@H](O)[C@@H](O)[C@H](O)[C@@H](O)CO [sorbitol] | 128 | – | –
7 | -83 | -81.4 | 0.64(1) | 0.03(1) | – | 189 | – | – | – | – | – | OCC(O)CO [glycerol] | 57 | – | –
